Source: patent US9120804B2, “8-substituted 2-amino-[1,2,4] triazolo [1, 5-A] pyrazines as Syk tryrosine kinase inhibitors and GCN2 serin kinase inhibitors” (Merck Patent GmbH, priority 2012, dated 2015)

Experiments:
SYK = target: T1, SYK (Homo sapiens, UniProt P43405); assay: SYK flash plate assay (enzyme assay); type: biochemical
T1 construct: 2.5 nM SYK, 400 nM Biotin-Aha-Aha-KEDPDYEWPSAKK
In short: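 Radiometric Flashplate format: biotinylated peptide substrate (400 nM) and 33P-labelled ATP (10 μM) react with 2.5 nM enzyme for 1 hour at 30 °C in Hepes buffer, pH 7.5. After EDTA quench and washing, counts are taken; staurosporine defines non-specific signal, and IC50 values are derived.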

GCN2 = GCN2 (Homo sapiens, UniProt Q9P2K8); assay: GCN2 enzyme assay; type: biochemical
Sequence of GCN2 (Q9P2K8 whole entry): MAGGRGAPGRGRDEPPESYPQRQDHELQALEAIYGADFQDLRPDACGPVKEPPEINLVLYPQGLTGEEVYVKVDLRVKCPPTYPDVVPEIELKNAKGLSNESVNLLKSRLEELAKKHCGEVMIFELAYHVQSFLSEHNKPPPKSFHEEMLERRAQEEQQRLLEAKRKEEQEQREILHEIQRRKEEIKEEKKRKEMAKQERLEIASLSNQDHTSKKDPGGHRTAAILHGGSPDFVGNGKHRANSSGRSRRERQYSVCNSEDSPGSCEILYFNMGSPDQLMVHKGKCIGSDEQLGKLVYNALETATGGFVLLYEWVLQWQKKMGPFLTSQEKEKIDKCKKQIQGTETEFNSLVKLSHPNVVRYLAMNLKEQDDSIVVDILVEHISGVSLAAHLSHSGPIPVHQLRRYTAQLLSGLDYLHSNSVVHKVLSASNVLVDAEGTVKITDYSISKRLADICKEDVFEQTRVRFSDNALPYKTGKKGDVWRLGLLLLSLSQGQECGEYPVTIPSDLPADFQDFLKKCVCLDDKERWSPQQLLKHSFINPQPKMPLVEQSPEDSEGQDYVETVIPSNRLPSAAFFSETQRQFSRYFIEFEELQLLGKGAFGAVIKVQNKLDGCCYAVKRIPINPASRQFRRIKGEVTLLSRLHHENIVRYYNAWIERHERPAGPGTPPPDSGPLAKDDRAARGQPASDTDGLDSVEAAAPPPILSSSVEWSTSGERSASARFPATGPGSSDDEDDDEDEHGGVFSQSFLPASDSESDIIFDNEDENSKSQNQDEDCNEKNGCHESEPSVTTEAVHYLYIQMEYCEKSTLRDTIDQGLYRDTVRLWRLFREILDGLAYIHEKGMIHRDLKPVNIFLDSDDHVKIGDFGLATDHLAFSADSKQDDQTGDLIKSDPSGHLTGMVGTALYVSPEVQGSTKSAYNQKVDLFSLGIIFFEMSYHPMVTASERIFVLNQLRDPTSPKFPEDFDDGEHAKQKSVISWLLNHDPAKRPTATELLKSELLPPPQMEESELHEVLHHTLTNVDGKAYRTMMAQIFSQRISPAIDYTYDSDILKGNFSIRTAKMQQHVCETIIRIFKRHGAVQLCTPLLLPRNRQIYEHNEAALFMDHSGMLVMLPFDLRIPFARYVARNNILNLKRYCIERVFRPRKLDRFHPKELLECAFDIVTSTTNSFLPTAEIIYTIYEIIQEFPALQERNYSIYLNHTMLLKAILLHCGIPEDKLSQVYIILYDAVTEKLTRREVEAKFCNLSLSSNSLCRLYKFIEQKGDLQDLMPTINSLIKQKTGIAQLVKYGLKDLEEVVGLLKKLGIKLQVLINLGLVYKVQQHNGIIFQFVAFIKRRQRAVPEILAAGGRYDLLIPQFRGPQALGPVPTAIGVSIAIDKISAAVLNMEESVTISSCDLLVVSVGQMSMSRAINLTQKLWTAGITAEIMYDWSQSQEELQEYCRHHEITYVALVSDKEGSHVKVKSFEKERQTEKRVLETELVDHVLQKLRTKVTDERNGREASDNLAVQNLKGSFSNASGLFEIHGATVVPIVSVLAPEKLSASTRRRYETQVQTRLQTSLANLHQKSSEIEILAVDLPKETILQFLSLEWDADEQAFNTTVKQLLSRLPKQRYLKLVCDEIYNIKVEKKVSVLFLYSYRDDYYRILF

Row | IC50 (SYK) [nM] | IC50 (GCN2) [nM] | SMILES
1 | 300 to 3000 | – | CC1(C)C(=O)Nc2cc(Nc3nc4c(N5CCCc6ccccc65)nccn4n3)ccc21 [E108, 6-[8-(3,4-dihydro-2H-quinolin-1-yl)-[1,2,4]triazolo[1,5-a]pyrazin-2-ylamino]-3,3-dimethyl-1,3-dihydro-indol-2-one]
2 | 100 to 300 | – | CN(c1nccn2nc(Nc3ccc4c(c3)NC(=O)C4(C)C)nc12)C1CCNCC1 [E17, 3,3-dimethyl-6-[8-(methyl-piperidin-4-yl-amino)-[1,2,4]triazolo[1,5-a]pyrazin-2-ylamino]-1,3-dihydro-indol-2-one]
3 | 100 to 300 | – | CC1(C)CCNc2cc(Nc3nc4c(N5CC[C@]6(CNC(=O)C6)C5)nccn4n3)ccc21 [E86, (S)-7-[2-(4,4-dimethyl-1,2,3,4-tetrahydro-quinolin-7-ylamino)-[1,2,4]triazolo[1,5-a]pyrazin-8-yl]-2,7-diaza-spiro[4.4]nonan-3-one]
4 | 300 to 3000 | – | CC1(C)C(=O)Nc2cc(Nc3nc4c(NCC5CCCNC5)nccn4n3)ccc21 (stereo not drawn) [E79, 3,3-dimethyl-6-{8-[(piperidin-3-ylmethyl)-amino]-[1,2,4]triazolo[1,5-a]pyrazin-2-ylamino}-1,3-dihydro-indol-2-one]
5 | 100 to 300 | – | CC1(C)C(=O)Nc2cc(Nc3nc4c(N5CCC6(C5)OCCO6)nccn4n3)ccc21 [E10, 6-[8-(1,4-dioxa-7-aza-spiro[4.4]non-7-yl)-[1,2,4]triazolo[1,5-a]pyrazin-2-ylamino]-3,3-dimethyl-1,3-dihydro-indol-2-one]
6 | < 100 | – | CC1(C)C(=O)Nc2cc(Nc3nc4c(N5CC[C@@]6(CCNC6)C5)nccn4n3)ccc21 [E106, 6-[(R)-8-(2,7-diaza-spiro[4.4]non-2-yl)-[1,2,4]triazolo[1,5-a]pyrazin-2-ylamino]-3,3-dimethyl-1,3-dihydro-indol-2-one]
7 | 300 to 3000 | – | CN(c1cccc(C(N)=O)c1)c1nccn2nc(Nc3ccc4c(c3)NC(=O)C4(C)C)nc12 [E151, 3-{[2-(3,3-dimethyl-2-oxo-2,3-dihydro-1H-indol-6-ylamino)-[1,2,4]triazolo[1,5-a]pyrazin-8-yl]-methyl-amino}-benzamide]
8 | 300 to 3000 | – | Cn1cc(-c2nccn3nc(Nc4cc5c(cc4F)C(C)(C)CC(=O)N5)nc23)cn1 [E121, 6-fluoro-4,4-dimethyl-7-[8-(1-methyl-1H-pyrazol-4-yl)-[1,2,4]triazolo[1,5-a]pyrazin-2-ylamino]-3,4-dihydro-1H-quinolin-2-one]
9 | 100 to 300 | – | Cc1nc(C2CCN(c3nccn4nc(Nc5ccc6c(c5)NC(=O)C6(C)C)nc34)CC2)[nH]c1C [E37, 6-{8-[4-(4,5-dimethyl-1H-imidazol-2-yl)-piperidin-1-yl]-[1,2,4]triazolo[1,5-a]pyrazin-2-ylamino}-3,3-dimethyl-1,3-dihydro-indol-2-one]
10 | 300 to 3000 | – | CC1(C)C(=O)Nc2cc(Nc3nc4c(NCCN)nccn4n3)ccc21 [E110, 6-[8-(2-amino-ethylamino)-[1,2,4]triazolo[1,5-a]pyrazin-2-ylamino]-3,3-dimethyl-1,3-dihydro-indol-2-one]
11 | < 100 | – | CN1CCOc2cc(-c3nccn4nc(Nc5ccc6c(c5)NC(=O)C6(C)C)nc34)cnc21 [E144, 3,3-dimethyl-6-[8-(4-methyl-3,4-dihydro-2H-pyrido[3,2-b][1,4]oxazin-7-yl)-[1,2,4]triazolo[1,5-a]pyrazin-2-ylamino]-1,3-dihydro-indol-2-one]
12 | < 100 | – | CC1(C)C(=O)Nc2cc(Nc3nc4c(NCC5CCNCC5)nccn4n3)ccc21 [E91, 3,3-dimethyl-6-{8-[(piperidin-4-ylmethyl)-amino]-[1,2,4]triazolo[1,5-a]pyrazin-2-ylamino}-1,3-dihydro-indol-2-one]
13 | 3000 to 50000 | – | CC1(C)C(=O)Nc2cc(Nc3nc4c(NS(=O)(=O)c5ccc(N)cc5)nccn4n3)ccc21 [E118, 4-amino-N-[2-(3,3-dimethyl-2-oxo-2,3-dihydro-1H-indol-6-ylamino)-[1,2,4]triazolo[1,5-a]pyrazin-8-yl]benzenesulfonamide]
14 | 100 to 300 | – | Cn1cc(-c2nccn3nc(Nc4ccc5c(c4)NS(=O)(=O)C5)nc23)cn1 [E23, (2,2-dioxo-2,3-dihydro-1H-2I6-benzo[c]isothiazol-6-yl)-[8-(1-methyl-1H-pyrazol-4-yl)-[1,2,4]triazolo[1,5-a]pyrazin-2-yl]-amine]
15 | 100 to 300 | – | CC1=NOCC2(CCN(c3nccn4nc(Nc5ccc6c(c5)NC(=O)C6(C)C)nc34)CC2)C1 [E58, 3,3-dimethyl-6-[8-(4-methyl-2-oxa-3,9-diaza-spiro[5.5]undec-3-en-9-yl)-[1,2,4]triazolo[1,5-a]pyrazin-2-ylamino]-1,3-dihydro-indol-2-one]
16 | 300 to 3000 | – | CC1(C)CC(=O)Nc2cc(Nc3nc4c(N5CCCC5c5ccccc5)nccn4n3)ccc21 (stereo not drawn) [E93, 4,4-dimethyl-7-[8-(2-phenyl-pyrrolidin-1-yl)-[1,2,4]triazolo[1,5-a]pyrazin-2-ylamino]-3,4-dihydro-1H-quinolin-2-one]
17 | < 100 | – | CC1(C)C(=O)Nc2cc(Nc3nc4c(N5CC[C@@]6(O)CCCC[C@H]6C5)nccn4n3)ccc21 [E136, 6-[8-((4aS,8aS)-4a-hydroxy-octahydro-isoquinolin-2-yl)-[1,2,4]triazolo[1,5-a]pyrazin-2-ylamino]-3,3-dimethyl-1,3-dihydro-indol-2-one]
18 | < 100 | – | CC1(C)CCNc2cc(Nc3nc4c(N5CCC6(CC5)CNC(=O)O6)nccn4n3)ccc21 [E53, 8-[2-(4,4-dimethyl-1,2,3,4-tetrahydro-quinolin-7-ylamino)-[1,2,4]triazolo[1,5-a]pyrazin-8-yl]-1-oxa-3,8-diaza-spiro[4.5]decan-2-one]
19 | 100 to 300 | – | CC1=NC2(CCN(c3nccn4nc(Nc5ccc6c(c5)NC(=O)C6(C)C)nc34)CC2)C(=O)N1 [E71, 8-[2-(3,3-dimethyl-2-oxo-2,3-dihydro-1H-indol-6-ylamino)-[1,2,4]triazolo[1,5-a]pyrazin-8-yl]-2-methyl-1,3,8-triaza-spiro[4.5]dec-1-en-4-one]
20 | 300 to 3000 | – | CC(C)(OC(O)C(F)(F)F)c1ccc(Nc2nc3c(N4CCCCCC4)nccn3n2)cc1N (stereo not drawn) [E127, 1-{1-[2-amino-4-(8-azepan-1-yl-[1,2,4]triazolo[1,5-a]pyrazin-2-ylamino)-phenyl]-1-methyl-ethoxy}-2,2,2-trifluoro-ethanol]
21 | 300 to 3000 | – | CN(C)CCN(C)c1nccn2nc(Nc3ccc4c(c3)NC(=O)C4(C)C)nc12 [E89, 6-{8-[(2-dimethylamino-ethyl)-methyl-amino]-[1,2,4]triazolo[1,5-a]pyrazin-2-ylamino}-3,3-dimethyl-1,3-dihydro-indol-2-one]
22 | 300 to 3000 | – | CC1(C)C(=O)Nc2cc(Nc3nc4c(N5C[C@@H](CO)C[C@@H]5c5ccccc5)nccn4n3)ccc21 (single isomer, unassigned) [E97, 6-[8-((trans1)-4-hydroxymethyl-2-phenyl-pyrrolidin-1-yl)-[1,2,4]triazolo[1,5-a]pyrazin-2-ylamino]-3,3-dimethyl-1,3-dihydro-indol-2-one]

The next lines start with the compound.

Row | SMILES | IC50 (SYK) [nM] | IC50 (GCN2) [nM]
23 | COc1cc(Nc2nc3c(N4CCN(C(C)=O)CC4)nccn3n2)cc(OC)c1 [C51, 1-{4-[2-(3,5-dimethoxy-phenylamino)-[1,2,4]triazolo[1,5-a]pyrazin-8-yl]-piperazin-1-yl}-ethanone] | 3000 to 50000 | 3000 to 50000
24 | Cc1nc2cc(Nc3nc4c(-c5ccc(C(=O)N6CCOCC6)cc5)nccn4n3)ccc2[nH]1 [C48, {4-[2-(2-methyl-1H-benzoimidazol-5-ylamino)-[1,2,4]triazolo[1,5-a]pyrazin-8-yl]-phenyl}-morpholin-4-yl-methanone] | 3000 to 50000 | 300 to 3000
25 | CC1(C)C(=O)Nc2cc(Nc3nc4c(N5CC[C@H](N)C5)nccn4n3)ccc21 [C86, 6-[8-((S)-3-amino-pyrrolidin-1-yl)-[1,2,4]triazolo[1,5-a]pyrazin-2-ylamino]-3,3-dimethyl-1,3-dihydro-indol-2-one] | 300 to 3000 | 3000 to 50000
26 | NS(=O)(=O)c1ccc(Nc2nc3c(-c4ccccc4-c4ccccc4)nccn3n2)cc1 [C15, 4-(8-Biphenyl-2-yl-[1,2,4]triazolo[1,5-a]pyrazin-2-ylamino)-benzenesulfonamide] | 3000 to 50000 | –
27 | COc1ccc(OC)c(Nc2nc3c(-c4ccccc4-c4ccccc4)nccn3n2)c1 [C3, (8-Biphenyl-2-yl-[1,2,4]triazolo[1,5-a]pyrazin-2-yl)-(2,5-dimethoxy-phenyl)-amine] | 300 to 3000 | –
28 | CN1CCCC(Nc2nccn3nc(Nc4ccc5c(c4)NC(=O)C5(C)C)nc23)C1 (stereo not drawn) [C107, 3,3-dimethyl-6-[8-(1-methyl-piperidin-3-ylamino)[1,2,4]triazolo[1,5-a]yrazin-2-ylamino]-1,3-dihydro-indol-2-one] | 300 to 3000 | –
29 | CCOC(=O)c1cnn2c1CN(c1nccn3nc(Nc4ccc5c(c4)NC(=O)C5(C)C)nc13)CC2 [C106, 5-[2-(3,3-dimethyl-2-oxo-2,3-dihydro-1H-indol-6-ylamino)-[1,2,4]triazolo[1,5-a]pyrazin-8-yl]-4,5,6,7-tetrahydro-pyrazolo[1,5-a]pyrazine-3-carboxylic acid ethyl ester] | 300 to 3000 | –
30 | c1ccc(-c2ccccc2-c2nccn3nc(Nc4cccc(N5CCOCC5)c4)nc23)cc1 [C17, (8-Biphenyl-2-yl-[1,2,4]triazolo[1,5-a]pyrazin-2-yl)-(3-morpholin-4-yl-phenyl)-amine] | 300 to 3000 | –
31 | COc1cc(Nc2nc3c(N4CCN(C)CC4)nccn3n2)cc(OC)c1 [C46, (3,5-dimethoxy-phenyl)-[8-(4-methyl-piperazin-1-yl)-[1,2,4]triazolo[1,5-a]pyrazin-2-yl]-amine] | 300 to 3000 | –
32 | CC1(C)C(=O)Nc2cc(Nc3nc4c(N5C[C@@H]6C[C@H]5CN6)nccn4n3)ccc21 [C89, 6-[(1S,4S)-8-(2,5-diaza-bicyclo[2.2.1]hept-2-yl)-[1,2,4]triazolo[1,5-a]pyrazin-2-ylamino]-3,3-dimethyl-1,3-dihydro-indol-2-one] | 300 to 3000 | –
33 | COc1cccc(Nc2nc3c(-c4ccccc4-c4ccccc4)nccn3n2)c1 [C7, (8-Biphenyl-2-yl-[1,2,4]triazolo[1,5-a]pyrazin-2-yl)-(3-methoxy-phenyl)-amine] | 300 to 3000 | –
